Common to all, as to experiment: Determination of Inhibition Constants
What all share (details): pH 8; 25 °C

One assay has as its target T1, Serine protease 1 (Bos taurus, UniProt P00760).
T1 sequence (P00760 whole entry): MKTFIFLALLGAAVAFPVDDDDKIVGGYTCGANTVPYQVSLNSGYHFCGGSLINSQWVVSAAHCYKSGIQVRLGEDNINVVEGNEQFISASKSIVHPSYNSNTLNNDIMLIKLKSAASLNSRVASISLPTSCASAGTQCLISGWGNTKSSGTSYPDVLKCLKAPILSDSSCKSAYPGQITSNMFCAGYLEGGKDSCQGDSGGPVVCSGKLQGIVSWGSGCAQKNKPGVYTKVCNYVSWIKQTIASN
Here is the method: (§1) The measurements were carried out on a microplate reader. Two concentrations of the substrate and five concentrations of the inhibitor were used in the assay. […] The Ki-values were calculated according to Dixon using a linear regression program. The Ki-values reported are means from at least three determinations.

Assay [1] addresses Tissue-type plasminogen activator (Homo sapiens, UniProt P00750). The protocol:
as §1

Assay [2] deals with Urokinase-type plasminogen activator (Homo sapiens, UniProt P00749). The protocol:
as §1

Structures are written as SMILES. pKi: −log10 of the molar value.

Usually pKi stands for the negative decadic logarithm of the Ki, by convention in mol/L.

Sequence of Tissue-type plasminogen activator (P00750 whole entry): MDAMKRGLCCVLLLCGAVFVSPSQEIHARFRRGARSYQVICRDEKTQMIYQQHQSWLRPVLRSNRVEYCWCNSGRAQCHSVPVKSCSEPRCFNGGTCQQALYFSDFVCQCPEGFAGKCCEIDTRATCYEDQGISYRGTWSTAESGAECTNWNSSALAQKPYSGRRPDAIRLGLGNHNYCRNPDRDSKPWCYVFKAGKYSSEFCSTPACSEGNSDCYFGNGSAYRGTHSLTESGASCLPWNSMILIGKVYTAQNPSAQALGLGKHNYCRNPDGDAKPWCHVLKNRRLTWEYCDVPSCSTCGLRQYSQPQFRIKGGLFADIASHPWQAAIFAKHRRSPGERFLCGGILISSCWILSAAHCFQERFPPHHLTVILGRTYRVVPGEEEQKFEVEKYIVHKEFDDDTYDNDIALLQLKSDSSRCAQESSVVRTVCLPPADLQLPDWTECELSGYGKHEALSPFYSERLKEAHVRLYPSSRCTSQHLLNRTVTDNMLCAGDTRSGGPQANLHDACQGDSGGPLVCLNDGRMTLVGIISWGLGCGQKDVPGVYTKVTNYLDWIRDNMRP

For the molecule `CCOC(=O)N1CCN(C(=O)C(Cc2cccc(C(=N)N)c2)NS(=O)(=O)c2c(C(C)C)cc(C(C)C)cc2C(C)C)CC1` (stereo not given), the values for the pKi (at Serine protease 1; in assay [1]; in assay [2]) were 7.43, 5.31 and 6.39, respectively.

As to `N=C(N)NC(=O)c1nc(Cl)c(N)nc1N` [3,5-diamino-N-carbamimidoyl-6-chloropyrazine-2-carboxamide], the pKi at Serine protease 1 is 4.49; in assay [1], less than 3.00.

`CC(C)c1cc(C(C)C)c(S(=O)(=O)N[C@@H](Cc2cccc(C(=N)N)c2)C(=O)N2CCN(C(=O)CCN)CC2)c(C(C)C)c1` [3-[3-(4-beta-alanylpiperazin-1-yl)-3-oxo-2-({[2,4,6-tris(1-methylethyl)phenyl]sulfonyl}amino)propyl]benzenecarboximidamide]: the pKi was 6.22 on Serine protease 1 and 5.06 in assay [1].

`NC(N)=Nc1ccc(CNC(=O)NC23CC4CC(CC(C4)C2)C3)cc1` [3-adamantan-1-yl-1-[(4-carbamimidamidophenyl)methyl]urea]: the values for the pKi (at Serine protease 1; in assay [1]; in assay [2]) were 4.34, less than 3.00 and 5.62, respectively.
